This is an account of results in ChEMBL document CHEMBL1157845, “Structure-activity relationship of new anti-tuberculosis agents derived from oxazoline and oxazole benzyl esters” (Eur J Med Chem, 2010).

For test [1], the system named is Mycobacterium tuberculosis. As to the kind of experiment: Antimycobacterial activity against Mycobacterium tuberculosis Erdman infected in BALB/c mouse assessed as reduction of bacterial load at 200 mg/kg, po qd for 5 days per week administered 60 days after infection measured after 85 days post infection. Further details: dose 200 mg/kg. The format is functional, organism-based.

Test [2] relates to Mycobacterium tuberculosis. Kind of test: Antimycobacterial activity against Mycobacterium tuberculosis H37Rv ATCC 27294 in GAS medium after 1 week by microplate alamar blue assay. The class given is functional. Conditions: H37Rv ATCC 27294, 168 h.
In test [3] the test system is Mycobacterium tuberculosis. Kind of test: Antimycobacterial activity against Mycobacterium tuberculosis H37Rv ATCC 27294 in GAST medium after 1 week by microplate alamar blue assay. The class given is functional. Particulars: H37Rv ATCC 27294, 168 h. In general terms: The colour change of resazurin is a common sign of viable cells or microbes.
Test [4] deals with Vero. As to the kind of experiment: Cytotoxicity against african green monkey Vero cells by colorimetric assay. The format is cell-based. Conditions: Chlorocebus sabaeus.
Test [5] concerns Mycobacterium tuberculosis. Kind of test: Antimycobacterial activity against Mycobacterium tuberculosis H37Rv ATCC 27294 incubated 10 days under anaerobic condition measured after 24 hrs recovery in air by luciferase based low oxygen recovery assay. The format is functional.

Each structure is given as a SMILES string. In brackets after ≈: the same amount, converted by molar mass. Activity calls are given as the source filed them.

For the molecule `O=C(OCc1ccccc1)c1coc(-c2ccc(Br)nc2)n1`, the outcome in test [1] was inactive. Moreover, the minimum inhibitory concentration (MIC) in test [2] was found to be 2.54 µM (≈ 0.912 µg/mL); in test [3], 1.84 µM (≈ 0.661 µg/mL); in test [5], 25.1 µM (≈ 9.02 µg/mL). In test [4], the half-inhibitory concentration (IC50) is more than 128 µM.
Take `O=C(OCc1ccccc1)[C@@H]1COC(c2ccc([N+](=O)[O-])cc2)=N1`: the result in test [1] was inactive. In addition, the minimal inhibitory concentration (MIC) in test [2] came to 30.6 µM (≈ 9.99 µg/mL); in test [3], 7.59 µM (≈ 2.48 µg/mL). Moreover, the IC50 in test [4] was more than 128 µM.
For `O=C(OCc1ccccc1)c1coc(-c2ccc([N+](=O)[O-])c(F)c2)n1`, the result in test [1] was inactive. The minimum inhibitory concentration (MIC) was 35.4 µM (≈ 12.1 µg/mL) in test [2] and 2.66 µM (≈ 0.91 µg/mL) in test [3]. Also, the concentration for half-maximal inhibition (IC50) in test [4] is more than 128 µM.
In the case of `O=C(OCc1ccccc1)c1coc(-c2ccc([N+](=O)[O-])cc2F)n1`, the outcome in test [1] was inactive. Besides, the MIC in test [2] was 0.7 µM (≈ 0.24 µg/mL); in test [3], 1.65 µM (≈ 0.565 µg/mL); in test [5], 11.6 µM (≈ 3.97 µg/mL). Besides, the 50% inhibitory concentration (IC50) in test [4] was more than 128 µM.
`COc1ccc(C2=N[C@H](C(=O)OCc3ccccc3)CO2)cc1`: the outcome in test [1] was inactive. Besides, the MIC in test [2] was found to be 26.1 µM (≈ 8.13 µg/mL); in test [3], 2.29 µM (≈ 0.713 µg/mL). The molecule also had a 50% inhibitory concentration (IC50) in test [4] of more than 128 µM.
Taken in the same sequence, the figures for `O=C(OCc1ccccc1)c1coc(-c2ccc(F)cc2[N+](=O)[O-])n1` were “inactive”, 2.4 µM (≈ 0.821 µg/mL), 9.9 µM (≈ 3.39 µg/mL) and more than 128 µM.
Taken in the same sequence, the figures for `O=C(OCc1ccccc1)c1coc(-c2cccc(Cl)c2)n1` were “inactive”, 1.25 µM (≈ 0.392 µg/mL), 0.99 µM (≈ 0.311 µg/mL) and more than 128 µM.
Taken in the same sequence, the figures for `O=C(OCc1ccccc1)[C@@H]1COC(c2ccc(OCc3ccccc3)c(F)c2)=N1` were “inactive”, 0.77 µM (≈ 0.312 µg/mL), 1.42 µM (≈ 0.576 µg/mL) and more than 128 µM.
Take `COc1ccc(-c2nc(C(=O)OCc3ccccc3)co2)cc1Cl`: the outcome in test [1] was inactive. For the same molecule, the figures for the MIC in test [2] and in test [3] were 2.35 µM (≈ 0.808 µg/mL) and 5.33 µM (≈ 1.83 µg/mL), respectively. Besides, the 50% inhibitory concentration (IC50) in test [4] was more than 128 µM.
Turning to `O=C(OCc1ccccc1)c1coc(-c2cccc(F)c2)n1`, in test [1], the result was inactive. Besides, the figures for the MIC in test [2] and in test [3] were 0.91 µM (≈ 0.271 µg/mL) and 1.42 µM (≈ 0.422 µg/mL), respectively. This molecule returned a half-inhibitory concentration (IC50) in test [4] of more than 128 µM.
Taken in the same sequence, the figures for `COc1ccc(CNC(=O)c2coc(-c3ccc([N+](=O)[O-])cc3)n2)cc1OC` were “inactive”, 35.8 µM (≈ 13.7 µg/mL), 49.5 µM (≈ 19 µg/mL) and more than 128 µM.
In the same order, the values of `Cc1oc(-c2ccccc2OCc2ccccc2)nc1C(=O)OCc1ccccc1` are “inactive”, 28.3 µM (≈ 11.3 µg/mL), more than 128 µM and 110 µM.
Regarding `O=C(OCc1ccccc1)c1coc(-c2ccc(Cl)cc2)n1`, the outcome in test [1] was inactive. For the same molecule, the MIC in test [2] turned out to be 18.9 µM (≈ 5.93 µg/mL); in test [3] it was 7.77 µM (≈ 2.44 µg/mL); in test [5], 56.2 µM (≈ 17.6 µg/mL). Further, the IC50 in test [4] is more than 128 µM.
Consider `O=C(OCc1ccccc1)[C@@H]1COC(c2cccc(Cl)c2)=N1`, for which the result in test [1] was inactive. Further, the figures for the minimum inhibitory concentration (MIC) in test [2] and in test [3] were 11.6 µM (≈ 3.66 µg/mL) and 1.8 µM (≈ 0.568 µg/mL), respectively. This molecule returned an IC50 in test [4] of more than 128 µM.
Regarding `O=C(OCc1ccccc1)[C@@H]1COC(c2ccc(Cl)cc2)=N1`, the result in test [1] was inactive. Moreover, the minimum inhibitory concentration (MIC) in test [2] came out at 61 µM (≈ 19.3 µg/mL); in test [3] it was 14.9 µM (≈ 4.7 µg/mL).
For the molecule `C[C@@H]1OC(c2ccc(F)cc2[N+](=O)[O-])=N[C@@H]1C(=O)OCc1ccccc1`, the outcome in test [1] was inactive. Further, the figures for the MIC in test [2] and in test [3] were 12.5 µM (≈ 4.48 µg/mL) and 4.11 µM (≈ 1.47 µg/mL), respectively. Moreover, 38.1 µM corresponded to half-maximal inhibition in test [4] (IC50).
On to `Nc1ccc(-c2nc(C(=O)OCc3ccccc3)co2)cc1`, for which the outcome in test [1] was inactive. The results for the minimum inhibitory concentration (MIC) in test [2], in test [3] and in test [5] were 1.98 µM (≈ 0.583 µg/mL), 3.67 µM (≈ 1.08 µg/mL) and 68.6 µM (≈ 20.2 µg/mL), respectively. For the same molecule, the half-inhibitory concentration (IC50) in test [4] was more than 128 µM.
As to `O=C(OCc1ccccc1)c1coc(-c2cccnc2S(=O)(=O)c2ccccc2)n1`, in test [1], the outcome was inactive. Moreover, the results for the minimal inhibitory concentration (MIC) in test [2] and in test [3] were 66.2 µM (≈ 27.8 µg/mL) and more than 128 µM, respectively.
Taken in the same sequence, the figures for `O=C(OCc1ccccc1)c1coc(-c2cccc(Cl)c2OCc2ccccc2)n1` were “inactive”, 5.4 µM (≈ 2.27 µg/mL) and more than 128 µM.
`Cc1oc(-c2ccc(F)cc2[N+](=O)[O-])nc1C(=O)OCc1ccccc1`: the result in test [1] was inactive. Besides, the minimal inhibitory concentration (MIC) in test [2] is 15 µM (≈ 5.34 µg/mL); in test [3], 4.62 µM (≈ 1.65 µg/mL); in test [5] it was more than 128 µM. For the same molecule, the 50% inhibitory concentration (IC50) in test [4] was more than 128 µM.
Turning to `O=C(OCc1ccccc1)c1coc(-c2cncc(-c3ccccc3)c2)n1`, the outcome in test [1] was inactive. For the same molecule, the values for the MIC in test [2] and in test [3] were 1.49 µM (≈ 0.531 µg/mL) and 0.98 µM (≈ 0.349 µg/mL), respectively. This molecule also had an IC50 in test [4] of more than 128 µM.
On to `CCOc1ccc(-c2nc(C(=O)OCc3ccccc3)co2)cc1`, for which, in test [1], the outcome was inactive. Also, the MIC was 15.5 µM (≈ 5.01 µg/mL) in test [2], 1.97 µM (≈ 0.637 µg/mL) in test [3] and 29.7 µM (≈ 9.6 µg/mL) in test [5]. In addition, the IC50 in test [4] was more than 128 µM.
Regarding `CCCCOc1ccc(C2=N[C@H](C(=O)OCc3ccccc3)CO2)cc1`, the outcome in test [1] was inactive. Further, the figures for the minimal inhibitory concentration (MIC) in test [2] and in test [3] were 2.72 µM (≈ 0.961 µg/mL) and 5.11 µM (≈ 1.81 µg/mL), respectively.
In the same order, the values of `O=C(OCc1ccccc1)c1coc(-c2ccc([N+](=O)[O-])cc2)n1` are “inactive”, 1.79 µM (≈ 0.58 µg/mL) and 42.3 µM (≈ 13.7 µg/mL).
With `O=C(OCc1ccccc1)[C@@H]1COC(c2ccc([N+](=O)[O-])c(F)c2)=N1`, in test [1], the result was inactive. Also, the values for the minimum inhibitory concentration (MIC) in test [2], in test [3] and in test [5] were 30.2 µM (≈ 10.4 µg/mL), 3.68 µM (≈ 1.27 µg/mL) and 59 µM (≈ 20.3 µg/mL), respectively. This molecule also had a half-maximal inhibitory concentration (IC50) in test [4] of more than 128 µM.
As to `COc1cccc(C2=N[C@H](C(=O)OCc3ccccc3)CO2)c1`, in test [1], the result was inactive. Also, the MIC in test [2] was 24.8 µM (≈ 7.72 µg/mL); in test [3], 42.5 µM (≈ 13.2 µg/mL).
Turning to `O=C(OCc1ccccc1)c1coc(-c2cncc(Br)c2)n1`, in test [1], the outcome was inactive. The minimal inhibitory concentration (MIC) is 2.37 µM (≈ 0.851 µg/mL) in test [2], 2.24 µM (≈ 0.805 µg/mL) in test [3] and more than 128 µM in test [5]. Besides, in test [4], the IC50 was more than 128 µM.
Regarding `Cc1ccc(-c2nc(C(=O)OCc3ccccc3)co2)cc1`, the outcome in test [1] was inactive. Further, the MIC in test [2] is 12.8 µM (≈ 3.77 µg/mL); in test [3], 7.68 µM (≈ 2.25 µg/mL).
In the same order, the values of `O=C(OCc1ccccc1)c1coc(-c2ccccc2P(=O)(c2ccccc2)c2ccccc2)n1` are “inactive”, 61.8 µM (≈ 29.6 µg/mL) and 61.5 µM (≈ 29.5 µg/mL).
In the case of `COc1ccc(-c2nc(C(=O)OCc3ccccc3)c(C)o2)cc1`, the outcome in test [1] was inactive. For the same molecule, the minimal inhibitory concentration (MIC) in test [2] was 47.4 µM (≈ 15.3 µg/mL); in test [3], 15.8 µM (≈ 5.11 µg/mL).
As to `O=C(OCc1ccccc1)c1coc(-c2ccc([N+](=O)[O-])cc2OCc2ccccc2)n1`, in test [1], the outcome was inactive. The MIC in test [2] and in test [3] was more than 128 µM in each case.
In the case of `COc1ccc(-c2nc(C(=O)OCc3ccccc3)co2)cc1F`, the outcome in test [1] was inactive. The MIC in test [2] came out at 5.55 µM (≈ 1.82 µg/mL); in test [3], 6.99 µM (≈ 2.29 µg/mL). Also, the half-maximal inhibitory concentration (IC50) in test [4] was more than 128 µM.
As for `CCCOc1ccc(-c2nc(C(=O)OCc3ccccc3)co2)cc1`, the outcome in test [1] was inactive. For the same molecule, the minimum inhibitory concentration (MIC) in test [2] is 3.48 µM (≈ 1.17 µg/mL); in test [3] it was 1.94 µM (≈ 0.655 µg/mL).
Taken in the same sequence, the figures for `COc1ccc(C2=N[C@H](C(=O)OCc3ccccc3)[C@H](C)O2)cc1` were “inactive”, 54.1 µM (≈ 17.6 µg/mL) and 37.8 µM (≈ 12.3 µg/mL).
Regarding `Cc1ccc(C2=N[C@H](C(=O)OCc3ccccc3)CO2)cn1`, the result in test [1] was inactive. Besides, the MIC stood at 73 µM (≈ 21.6 µg/mL) in test [2] and 122 µM (≈ 36.2 µg/mL) in test [3].
As for `Cc1oc(-c2ccccc2)nc1C(=O)OCc1ccccc1`, the outcome in test [1] was inactive. Further, the MIC in test [2] was 3.92 µM (≈ 1.15 µg/mL); in test [3] it was 15.2 µM (≈ 4.46 µg/mL); in test [5], more than 128 µM. Further, in test [4], inhibition was half-maximal at 35 µM (IC50).
As to `COC(=O)[C@@H]1COC(c2ccccc2OCc2ccccc2)=N1`, in test [1], the outcome was inactive. Further, the MIC in test [2] was 118 µM (≈ 36.7 µg/mL); in test [3], more than 128 µM.
In the same order, the values of `N#Cc1cccc(-c2nc(C(=O)OCc3ccccc3)co2)c1` are “inactive”, 25.2 µM (≈ 7.67 µg/mL) and 60.5 µM (≈ 18.4 µg/mL).
Taken in the same sequence, the figures for `O=C(OCc1ccccc1)[C@@H]1COC(c2ccc(Cl)c(F)c2)=N1` were “inactive”, 52 µM (≈ 17.4 µg/mL) and 6.49 µM (≈ 2.17 µg/mL).

In general, MIC refers to the smallest concentration in the dilution series that meets the test's criterion for growth inhibition. A word on the IC50: it is the concentration that inhibits the measured activity by half.
